Experimental data taken from patent US9951044B2, “Quinazoline derivatives and their use as DNA methyltransferase inhibitors” (PIERRE FABRE MEDICAMENT, priority 2013, dated 2018).
pEC50: −log10 of the molar value. Like-named read-outs stand apart in the source and are kept apart here. One block for each molecule: values may come before it.

Legend:
[1] = biological target: T1, His-DNMT1 (182 kDa, human) (Homo sapiens, UniProt P26358); assay: DNMT1 assay ([methyl-3H] SAM Flashplate); type: biochemical; settings: for inhibition at 100 µM: read-out: DNMT1 (% of inhibition) 100 μM; for inhibition at 32 µM: read-out: DNMT1 (% of inhibition) 32 μM
T1 construct: His; made in house
Procedure: His-DNMT1 (182 kDa, human) was cloned, expressed and purified as described in Halby et al. (ChemBioChem 2012, 13, 157-65). The reaction was performed in a 10 μL total reaction volume in low volume NBS™ 384-well microplates (Corning), containing the tested compound (up to 1% DMSO), 1 μM of a SAM/[methyl-^3H] SAM (3 TBq/mmol, PerkinElmer) mix in a ratio of 3-to-1 (isotopic dilution 1*:3), 0.3 μM of biotinylated hemimethylated DNA duplex (5′-GATmCGCmCGATGmCGmCGAATmCGmCGAT mCGATGmCGAT-3′ and BIOT-5′-[…] ATC-3′), and 90 nM of DNMT1 in methylation buffer (20 mM HEPES pH 7.2, 1 mM EDTA, 50 mM KCl, 25 μg/mL BSA). The reaction was incubated at 37° C. for 2 hours. 8 μL are then transferred into a streptavidin 96-well scintillant coated Flashplate™ (PerkinElmer) containing 190 μL of 20 μM SAH in 50 mM Tris-HCl pH 7.4. The Flashplate™ was agitated at room temperature for 1 hour, washed three times with 200 μL of 0.05% Tween®-20 in 50 mM Tris-HCl pH 7.4, and read in 200 μL of 50 mM Tris-HCl pH 7.4 on TopCount NXT (PerkinElmer).

[2] = biological target: T2, human C-terminal DNMT3A (a.a. 623-908) (Homo sapiens, UniProt Q9Y6K1); assay: DNMT3A assay (restriction-based fluorescence); type: biochemical; settings: for inhibition at 10 µM: read-out: DNMT3A (% of inhibition) 10 μM; for inhibition at 32 µM: read-out: DNMT3A (% of inhibition) 32 μM; for pEC50: concentration range in triplicates; for inhibition at 20 µM: compound at 20 μM
T2 construct: The human C-terminal DNMT3A (a.a. 623-908); made in house
From the text: DNMT3A enzyme inhibition was adapted from the restriction-based fluorescence assay protocol described in Ceccaldi et al. (ChemBioChem 2011, 12, 1337-45). Briefly, a 5′-labelled biotin oligonucleotide is hybridized to its complementary strand labelled with 6-carboxyfluorescein at the 3′-end into a 384 well microplate (black Optiplates; Perkin Elmer) pre-coated with avidin. The duplex contains a unique CpG site overlapping with a restriction site of a methylation sensitive restriction enzyme. The human C-terminal DNMT3A (a.a. 623-908), produced as described in Gros et al. (Nucleic Acids Research 2013 Aug. 25), was added in each well (200 ng/well) and mixed with the chemical compounds at desired concentrations and freshly prepared AdoMet (20 μM final concentration) to start the reaction in a total volume of 50 μL. After 1 hour incubation at 37° C. each well were washed three times with PBS, Tween-20 0.05%, NaCl (500 mM) and three more times with PBST. Specific fluorescent signals were detected with the methylation-sensitive restriction enzyme HpyCH4IV (NEB) as described and measured on a Perkin Elmer Envision detector. The percentage of inhibition is reported. The formula used to calculate the percentage of inhibition is [(X−Y)/X]×100, where X is the signal determined in the absence of the inhibitor and Y is the signal obtained in the presence of the inhibitor. The concentration at which 50% of efficacy of inhibition is observed (EC50) was determined by analysis of a concentration range of the tested compound in triplicates. The non-linear regression fittings with sigmoidal dose-response (variable slope) were performed with GraphPad Prism 4.03 (GraphPad Software).

T2 sequence (Q9Y6K1 627-912 limits assumed): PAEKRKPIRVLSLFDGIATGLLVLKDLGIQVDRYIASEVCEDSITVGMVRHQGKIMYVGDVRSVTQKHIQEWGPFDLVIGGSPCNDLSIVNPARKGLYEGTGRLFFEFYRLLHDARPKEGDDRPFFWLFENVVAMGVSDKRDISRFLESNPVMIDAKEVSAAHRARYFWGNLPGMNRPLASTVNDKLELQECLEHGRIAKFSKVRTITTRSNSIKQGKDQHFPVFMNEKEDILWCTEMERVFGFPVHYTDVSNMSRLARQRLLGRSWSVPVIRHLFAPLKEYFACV
T1 sequence (P26358 whole entry): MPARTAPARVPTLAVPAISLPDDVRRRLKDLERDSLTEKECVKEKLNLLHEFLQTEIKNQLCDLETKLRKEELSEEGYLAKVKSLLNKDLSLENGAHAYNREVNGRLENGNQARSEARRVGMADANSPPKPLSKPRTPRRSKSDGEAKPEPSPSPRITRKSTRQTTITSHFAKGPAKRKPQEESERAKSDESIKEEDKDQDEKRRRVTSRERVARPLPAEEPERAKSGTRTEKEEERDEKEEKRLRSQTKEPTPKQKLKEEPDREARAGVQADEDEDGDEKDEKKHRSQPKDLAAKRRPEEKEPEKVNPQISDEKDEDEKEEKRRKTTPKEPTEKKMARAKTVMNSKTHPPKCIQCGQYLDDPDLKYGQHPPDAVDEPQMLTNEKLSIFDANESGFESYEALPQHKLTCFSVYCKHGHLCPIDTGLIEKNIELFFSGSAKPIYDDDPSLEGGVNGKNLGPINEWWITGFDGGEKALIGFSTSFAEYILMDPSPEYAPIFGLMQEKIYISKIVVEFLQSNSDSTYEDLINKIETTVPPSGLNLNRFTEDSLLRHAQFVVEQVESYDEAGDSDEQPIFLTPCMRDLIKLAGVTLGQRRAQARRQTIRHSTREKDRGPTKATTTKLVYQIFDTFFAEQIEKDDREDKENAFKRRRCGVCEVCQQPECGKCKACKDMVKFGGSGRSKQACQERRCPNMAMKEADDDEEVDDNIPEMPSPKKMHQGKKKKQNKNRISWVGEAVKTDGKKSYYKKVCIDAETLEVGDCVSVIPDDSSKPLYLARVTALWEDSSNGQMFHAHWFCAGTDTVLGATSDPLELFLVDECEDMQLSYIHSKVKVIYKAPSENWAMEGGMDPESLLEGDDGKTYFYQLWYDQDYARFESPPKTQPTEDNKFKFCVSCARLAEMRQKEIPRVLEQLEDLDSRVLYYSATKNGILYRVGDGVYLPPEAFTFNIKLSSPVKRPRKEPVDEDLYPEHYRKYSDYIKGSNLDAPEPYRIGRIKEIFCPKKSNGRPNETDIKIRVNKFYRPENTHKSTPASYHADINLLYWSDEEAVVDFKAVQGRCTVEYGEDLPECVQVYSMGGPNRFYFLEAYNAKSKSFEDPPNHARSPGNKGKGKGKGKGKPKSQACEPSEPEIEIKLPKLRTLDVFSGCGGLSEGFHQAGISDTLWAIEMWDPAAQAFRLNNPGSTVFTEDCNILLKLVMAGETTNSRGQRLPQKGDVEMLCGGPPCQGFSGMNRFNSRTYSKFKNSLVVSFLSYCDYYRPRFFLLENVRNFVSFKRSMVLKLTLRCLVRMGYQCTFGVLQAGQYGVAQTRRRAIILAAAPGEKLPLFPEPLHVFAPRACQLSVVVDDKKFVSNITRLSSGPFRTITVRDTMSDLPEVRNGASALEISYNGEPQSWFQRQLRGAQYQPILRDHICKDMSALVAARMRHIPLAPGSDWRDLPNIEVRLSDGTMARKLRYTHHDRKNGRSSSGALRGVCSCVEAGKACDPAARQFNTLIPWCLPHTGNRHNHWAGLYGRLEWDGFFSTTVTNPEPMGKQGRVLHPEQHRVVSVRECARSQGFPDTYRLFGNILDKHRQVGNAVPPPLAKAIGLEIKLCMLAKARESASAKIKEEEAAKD

Structure (SMILES): c1ccc2c(NCCNc3ncnc4cc(OCC5CCN(CCNc6ccnc7ccccc67)CC5)ccc34)ccnc2c1 [AI]
inhibition at 32 µM ([1]; compound at 32 μM): 99% | inhibition at 100 µM ([1]; compound at 100 μM): 99% | inhibition at 10 µM ([2]; compound at 10 μM): 86% | inhibition at 32 µM ([2]; compound at 32 μM): 99% | pEC50 [2]: 6.00

Structure (SMILES): c1ccc(CN2CCC(Nc3ncnc4cc(OCC5CCN(CCNc6ccnc7ccccc67)CC5)ccc34)CC2)cc1 [AL]
inhibition at 32 µM ([1]; compound at 32 μM): 81% | inhibition at 100 µM ([1]; compound at 100 μM): 81% | inhibition at 10 µM ([2]; compound at 10 μM): 72% | inhibition at 32 µM ([2]; compound at 32 μM): 93% | pEC50 [2]: 5.10

Structure (SMILES): Clc1ccc2c(NCCN3CCC(COc4ccc5c(NCCCc6ccccc6)ncnc5c4)CC3)ccnc2c1 [AO, 4-((3-phenylpropyl)amino)-7-((1-(2-(7-chloroquinolin-4-ylamino)ethyl)piperidin-4-yl)methoxy)quinazoline]
inhibition at 100 µM [1]: 79% | inhibition at 10 µM [2]: 70% | inhibition at 32 µM [2]: 62%

Structure (SMILES): COc1ccc2c(NCCN3CCC(COc4ccc5c(NCCCc6ccccc6)ncnc5c4)CC3)ccnc2c1 [AP, 4-((3-phenylpropyl)amino)-7-((1-(2-(7-methoxyquinolin-4-ylamino)ethyl)piperidin-4-yl)methoxy)quinazoline]
inhibition at 100 µM [1]: 90% | pEC50 [2]: 5.59 | inhibition at 10 µM [2]: 70% | inhibition at 32 µM [2]: 80%

Structure (SMILES): COc1cc2nccc(NCCN3CCC(COc4ccc5c(NCCCc6ccccc6)ncnc5c4)CC3)c2cc1OC [AQ, 4-((3-phenylpropyl)amino)-7-((1-(2-(6,7-dimethoxyquinolin-4-ylamino)ethyl)piperidin-4-yl)methoxy)quinazoline]
inhibition at 32 µM [1]: 61% | inhibition at 100 µM [1]: 100% | inhibition at 10 µM [2]: 95% | inhibition at 32 µM [2]: 95%

Structure (SMILES): CN(CCN1CCC(COc2ccc3c(NCCCc4ccccc4)ncnc3c2)CC1)c1ccnc2ccccc12 [AR, 4-((3-phenylpropyl)amino)-7-((1-(2-(methyl(quinolin-4-yl)amino)ethyl)piperidin-4-yl)methoxy)quinazoline]
pEC50 [2]: 5.33 | inhibition at 10 µM [2]: 66% | inhibition at 32 µM [2]: 66%

Structure (SMILES): c1ccc(CCCNc2ncnc3cc(OCC4CCN(CCNc5ccc6ncccc6c5)CC4)ccc23)cc1 [AS, 4-((3-phenylpropyl)amino)-7-((1-(2-(quinolin-6-ylamino)ethyl)piperidin-4-yl)methoxy)quinazoline]
inhibition at 10 µM [2]: 60% | inhibition at 32 µM [2]: 60%

Structure (SMILES): c1ccc(CCCNc2ncnc3cc(OCC4CCN(CCNc5ccnc6ccccc56)C4)ccc23)cc1 (stereo not drawn) [Compound AM, 4-((3-phenylpropyl)amino)-7-((1-(2-(quinolin-4-ylamino)ethyl)pyrrolidin-3-yl)methoxy)quinazoline]
inhibition at 100 µM ([1]; compound at 100 μM): 100% | inhibition at 32 µM ([2]; compound at 32 μM): 81%

Structure (SMILES): Nc1ccc(NCCN2CCC(COc3ccc4c(NCCCc5ccccc5)ncnc4c3)CC2)cc1 [Compound AN]
inhibition at 32 µM ([2]; compound at 32 μM): 65%

Structure (SMILES): c1ccc(CCCNc2ncnc3cc(OCCCNCCCNc4ccnc5ccccc45)ccc23)cc1 [Compound A]
inhibition at 100 µM ([1]; compound at 100 μM): 97% | inhibition at 10 µM ([2]; compound at 10 μM): 60% | inhibition at 20 µM [2]: 76% | inhibition at 32 µM ([2]; compound at 32 μM): 85% | pEC50 [2]: 5.00

Structure (SMILES): c1ccc(CCCNc2ncnc3cc(OCCCNCCCCNc4ccnc5ccccc45)ccc23)cc1 [Compound B]
inhibition at 100 µM ([1]; compound at 100 μM): 86% | inhibition at 20 µM [2]: 67%

Structure (SMILES): O=CN(CCCNc1ccnc2ccccc12)CCCOc1ccc2c(NCCCc3ccccc3)ncnc2c1 [Compound E, N-(3-((4-((3-phenylpropyl)amino)quinazolin-7-yl)oxy)propyl)-N-(3-(quinolin-4-ylamino)propyl)formamide]
inhibition at 20 µM [2]: 27% | inhibition at 32 µM ([2]; compound at 32 μM): 51%

Structure (SMILES): COCn1ccc(NCCN2CCC(COc3ccc4c(NCCCc5ccccc5)ncnc4c3)CC2)nc1=O [Compound K, 1-(methoxymethyl)-N^4-(2-(4-(((4-((3-phenylpropyl)amino)quinazolin-7-yl)oxy)methyl)piperidin-1-yl)ethyl)cytosine]
inhibition at 10 µM ([2]; compound at 10 μM): 10% | inhibition at 20 µM [2]: 40% | inhibition at 32 µM ([2]; compound at 32 μM): 44%

Other lines, results leading:

inhibition at 100 µM ([1]; compound at 100 μM): 97% | inhibition at 10 µM ([2]; compound at 10 μM): 82% | inhibition at 32 µM ([2]; compound at 32 μM): 91% | pEC50 [2]: 5.57
Structure (SMILES): Clc1cccc(CCNc2ncnc3cc(OCC4CCN(CCNc5ccnc6ccccc56)CC4)ccc23)c1 [AA, 4-(2-(3-chlorophenyl)ethylamino)-7-((1-(2-(quinolin-4-ylamino)ethyl)piperidin-4-yl)methoxy)quinazoline]

inhibition at 32 µM ([1]; compound at 32 μM): 42% | inhibition at 100 µM ([1]; compound at 100 μM): 97% | inhibition at 32 µM ([2]; compound at 32 μM): 100%
Structure (SMILES): Clc1ccccc1CCNc1ncnc2cc(OCC3CCN(CCNc4ccnc5ccccc45)CC3)ccc12 [AB, 4-(2-(2-chlorophenyl)ethylamino)-7-((1-(2-(quinolin-4-ylamino)ethyl)piperidin-4-yl)methoxy)quinazoline]

inhibition at 32 µM ([1]; compound at 32 μM): 75% | inhibition at 100 µM ([1]; compound at 100 μM): 97% | inhibition at 10 µM ([2]; compound at 10 μM): 88% | inhibition at 32 µM ([2]; compound at 32 μM): 100% | pEC50 [2]: 5.72
Structure (SMILES): Clc1ccc(CCNc2ncnc3cc(OCC4CCN(CCNc5ccnc6ccccc56)CC4)ccc23)cc1 [AC, 4-(2-(4-chlorophenyl)ethylamino)-7-((1-(2-(quinolin-4-ylamino)ethyl)piperidin-4-yl)methoxy)quinazoline]

inhibition at 32 µM ([1]; compound at 32 μM): 59% | inhibition at 100 µM ([1]; compound at 100 μM): 100% | inhibition at 32 µM ([2]; compound at 32 μM): 93%
Structure (SMILES): NS(=O)(=O)c1ccc(CCNc2ncnc3cc(OCC4CCN(CCNc5ccnc6ccccc56)CC4)ccc23)cc1 [AD, 4-(2-(4-sulfonamidophenyl)ethylamino)-7-((1-(2-(quinolin-4-ylamino)ethyl)piperidin-4-yl)methoxy)quinazoline]

inhibition at 32 µM ([1]; compound at 32 μM): 54% | inhibition at 100 µM ([1]; compound at 100 μM): 74% | inhibition at 10 µM ([2]; compound at 10 μM): 61% | inhibition at 32 µM ([2]; compound at 32 μM): 72% | pEC50 [2]: 5.96
Structure (SMILES): O=[N+]([O-])c1ccc(CCNc2ncnc3cc(OCC4CCN(CCNc5ccnc6ccccc56)CC4)ccc23)cc1 [AE, 4-(2-(4-nitrophenyl)ethylamino)-7-((1-(2-(quinolin-4-ylamino)ethyl)piperidin-4-yl)methoxy)quinazoline]

inhibition at 10 µM ([2]; compound at 10 μM): 53% | inhibition at 32 µM ([2]; compound at 32 μM): 83%
Structure (SMILES): CC(C)c1ccc(CCNc2ncnc3cc(OCC4CCN(CCNc5ccnc6ccccc56)CC4)ccc23)cc1 [AF, 4-(2-(4-isopropylphenyl)ethylamino)-7-((1-(2-(quinolin-4-ylamino)ethyl)piperidin-4-yl)methoxy)quinazoline]

inhibition at 32 µM ([1]; compound at 32 μM): 77% | inhibition at 100 µM ([1]; compound at 100 μM): 59% | inhibition at 10 µM ([2]; compound at 10 μM): 82% | inhibition at 32 µM ([2]; compound at 32 μM): 100%
Structure (SMILES): COc1ccc(CCNc2ncnc3cc(OCC4CCN(CCNc5ccnc6ccccc56)CC4)ccc23)cc1 [AG, 4-(2-(4-methoxyphenyl)ethylamino)-7-((1-(2-(quinolin-4-ylamino)ethyl)piperidin-4-yl)methoxy)quinazoline]

inhibition at 32 µM ([1]; compound at 32 μM): 59% | inhibition at 100 µM ([1]; compound at 100 μM): 97% | inhibition at 10 µM ([2]; compound at 10 μM): 68% | inhibition at 32 µM ([2]; compound at 32 μM): 96%
Structure (SMILES): Nc1ccc(CCNc2ncnc3cc(OCC4CCN(CCNc5ccnc6ccccc56)CC4)ccc23)cc1 [AH, 4-(2-(4-aminophenyl)ethylamino)-7-((1-(2-(quinolin-4-ylamino)ethyl)piperidin-4-yl)methoxy)quinazoline]

inhibition at 32 µM ([1]; compound at 32 μM): 93% | inhibition at 100 µM ([1]; compound at 100 μM): 93% | inhibition at 10 µM ([2]; compound at 10 μM): 76% | inhibition at 32 µM ([2]; compound at 32 μM): 5%
Structure (SMILES): c1ccc(NCCNc2ncnc3cc(OCC4CCN(CCNc5ccnc6ccccc56)CC4)ccc23)cc1 [AK, 4-(2-(phenylamino)ethylamino)-7-((1-(2-(quinolin-4-ylamino)ethyl)piperidin-4-yl)methoxy)quinazoline]
